Data from PubChem BioAssay (NCI).
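Abbreviation: GI50, concentration required for 50% inhibition of growth. At the TGI there is no net growth.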

Key:
Experiment in all cases: NCI tumour cell line growth inhibition, 384-well format
786-0 renal = system: 786-0 renal
A498 renal = system: A498 renal
A549 NSCLC = system: A549 NSCLC
ACHN renal = system: ACHN renal
BT-549 breast = system: BT-549 breast
CAKI-1 renal = system: CAKI-1 renal
CCRF-CEM leukemia = system: CCRF-CEM leukemia
COLO 205 colon = system: COLO 205 colon
DU-145 prostate = system: DU-145 prostate
EKVX NSCLC = system: EKVX NSCLC
HCC-2998 colon = system: HCC-2998 colon
HCT-116 colon = system: HCT-116 colon
HCT-15 colon = system: HCT-15 colon
HL-60(TB) leukemia = system: HL-60(TB) leukemia
HOP-62 NSCLC = system: HOP-62 NSCLC
HOP-92 NSCLC = system: HOP-92 NSCLC
HS 578T breast = system: HS 578T breast
HT29 colon = system: HT29 colon
IGROV1 ovarian = system: IGROV1 ovarian
K-562 leukemia = system: K-562 leukemia
KM12 colon = system: KM12 colon
LOX IMVI melanoma = system: LOX IMVI melanoma
M14 melanoma = system: M14 melanoma
MALME-3M melanoma = system: MALME-3M melanoma
MCF7 breast = system: MCF7 breast
MDA-MB-231 breast = system: MDA-MB-231 breast
MDA-MB-435 melanoma = system: MDA-MB-435 melanoma
MDA-MB-468 breast = system: MDA-MB-468 breast
MOLT-4 leukemia = system: MOLT-4 leukemia
NCI-H226 lung = system: NCI-H226 lung
NCI-H23 lung = system: NCI-H23 lung
NCI-H322M lung = system: NCI-H322M lung
NCI-H460 NSCLC = system: NCI-H460 NSCLC
NCI-H522 lung = system: NCI-H522 lung
NCI/ADR-RES ovarian = system: NCI/ADR-RES ovarian
OVCAR-3 ovarian = system: OVCAR-3 ovarian
OVCAR-4 ovarian = system: OVCAR-4 ovarian
OVCAR-8 ovarian = system: OVCAR-8 ovarian
PC-3 prostate = system: PC-3 prostate
RPMI-8226 leukemia = system: RPMI-8226 leukemia
SF-268 CNS = system: SF-268 CNS
SF-295 CNS = system: SF-295 CNS
SF-539 CNS = system: SF-539 CNS
SK-MEL-28 melanoma = system: SK-MEL-28 melanoma
SK-MEL-5 melanoma = system: SK-MEL-5 melanoma
SK-OV-3 ovarian = system: SK-OV-3 ovarian
SN12C renal = system: SN12C renal
SNB-19 CNS = system: SNB-19 CNS
SNB-75 CNS = system: SNB-75 CNS
SR leukemia = system: SR leukemia
SW-620 colon = system: SW-620 colon
T-47D breast = system: T-47D breast
TK-10 renal = system: TK-10 renal
U251 glioblastoma = system: U251 glioblastoma
UACC-257 melanoma = system: UACC-257 melanoma
UACC-62 melanoma = system: UACC-62 melanoma
UO-31 renal = system: UO-31 renal

C[C@@H]1COCCN1c1cc(C2([S@@](C)(=N)=O)CC2)nc(-c2ccnc3[nH]ccc23)n1
GI50 ([…]-0 renal): 2.32 µM | TGI (786-0 renal): 12.1 µM | GI50 (A498 renal): 1.12 µM | TGI (A498 renal): 3.92 µM | GI50 (A549 NSCLC): 3.93 µM | TGI (A549 NSCLC): 36.5 µM | GI50 (ACHN renal): 2.03 µM | TGI (ACHN renal): 17.5 µM | GI50 (BT-549 breast): 1.98 µM | TGI (BT-549 breast): 7.43 µM | GI50 (CAKI-1 renal): 3.87 µM | TGI (CAKI-1 renal): 29.6 µM | GI50 (CCRF-CEM leukemia): 0.902 µM | TGI (CCRF-CEM leukemia): 2.26 µM | GI50 (COLO 205 colon): 9.01 µM | TGI (COLO 205 colon): 62.6 µM | GI50 (DU-145 prostate): 3.82 µM | TGI (DU-145 prostate): > 100 µM | GI50 (EKVX NSCLC): 9.1 µM | TGI (EKVX NSCLC): 69.1 µM | GI50 (HCC-2998 colon): 1.1 µM | TGI (HCC-2998 colon): 5.38 µM | GI50 (HCT-116 colon): 3.27 µM | TGI (HCT-116 colon): 56.5 µM | GI50 (HCT-15 colon): 4.48 µM | TGI (HCT-15 colon): > 100 µM | GI50 (HL-60(TB) leukemia): 1.98 µM | TGI (HL-60(TB) leukemia): 3.68 µM | GI50 (HOP-62 NSCLC): 2.15 µM | TGI (HOP-62 NSCLC): 9.45 µM | GI50 (HOP-92 NSCLC): 3.02 µM | TGI (HOP-92 NSCLC): 13.1 µM | GI50 (HS 578T breast): 1.22 µM | TGI (HS 578T breast): 3.37 µM | GI50 (HT29 colon): 4.65 µM | TGI (HT29 colon): 26.9 µM | GI50 (IGROV1 ovarian): 3.47 µM | TGI (IGROV1 ovarian): 32.9 µM | GI50 (K-562 leukemia): 3.3 µM | TGI (K-562 leukemia): 12 µM | GI50 (KM12 colon): 1.8 µM | TGI (KM12 colon): 27.1 µM | GI50 (LOX IMVI melanoma): 3.43 µM | TGI (LOX IMVI melanoma): 14 µM | GI50 (M14 melanoma): 2.44 µM | TGI (M14 melanoma): 9.06 µM | GI50 (MALME-3M melanoma): 3.72 µM | TGI (MALME-3M melanoma): 23.6 µM | GI50 (MCF7 breast): 1.27 µM | TGI (MCF7 breast): > 100 µM | GI50 (MDA-MB-231 breast): 6.06 µM | TGI (MDA-MB-231 breast): > 100 µM | GI50 (MDA-MB-435 melanoma): 7.48 µM | TGI (MDA-MB-435 melanoma): > 100 µM | GI50 (MDA-MB-468 breast): 5.01 µM | TGI (MDA-MB-468 breast): 27.3 µM | GI50 (MOLT-4 leukemia): 1.35 µM | TGI (MOLT-4 leukemia): 2.68 µM | GI50 (NCI-H226 lung): 16.1 µM | TGI (NCI-H226 lung): 77 µM | GI50 (NCI-H23 lung): 1.97 µM | TGI (NCI-H23 lung): 5.21 µM | GI50 (NCI-H322M lung): 1.78 µM | TGI (NCI-H322M lung): 7.77 µM | GI50 (NCI-H460 NSCLC): 1.38 µM | TGI (NCI-H460 NSCLC): 10.5 µM | GI50 (NCI-H522 lung): 10.8 µM | TGI (NCI-H522 lung): > 100 µM | GI50 (NCI/ADR-RES ovarian): 61.8 µM | TGI (NCI/ADR-RES ovarian): > 100 µM | GI50 (OVCAR-3 ovarian): 4.62 µM | TGI (OVCAR-3 ovarian): > 100 µM | GI50 (OVCAR-4 ovarian): 5.37 µM | TGI (OVCAR-4 ovarian): 75.1 µM | GI50 (OVCAR-8 ovarian): 7.62 µM | TGI (OVCAR-8 ovarian): 32.2 µM | GI50 (PC-3 prostate): 7.65 µM | TGI (PC-3 prostate): > 100 µM | GI50 (RPMI-8226 leukemia): 1.82 µM | TGI (RPMI-8226 leukemia): 4.28 µM | GI50 (SF-268 CNS): 5.75 µM | TGI (SF-268 CNS): 95.7 µM | GI50 (SF-295 CNS): 2.68 µM | TGI (SF-295 CNS): 13.7 µM | GI50 (SF-539 CNS): 2.16 µM | TGI (SF-539 CNS): 6.4 µM | GI50 (SK-MEL-28 melanoma): 23.8 µM | TGI (SK-MEL-28 melanoma): > 100 µM | GI50 (SK-MEL-5 melanoma): 7.66 µM | TGI (SK-MEL-5 melanoma): 25 µM | GI50 (SK-OV-3 ovarian): 3.29 µM | TGI (SK-OV-3 ovarian): 41.8 µM | GI50 (SN12C renal): 4.3 µM | TGI (SN12C renal): 50.1 µM | GI50 (SNB-19 CNS): 9.29 µM | TGI (SNB-19 CNS): > 100 µM | GI50 (SNB-75 CNS): 3.9 µM | TGI (SNB-75 CNS): 51.8 µM | GI50 (SR leukemia): 0.0145 µM | TGI (SR leukemia): 0.244 µM | GI50 (SW-620 colon): 10.6 µM | TGI (SW-620 colon): > 100 µM | GI50 (T-47D breast): 14.7 µM | TGI (T-47D breast): > 100 µM | GI50 (TK-10 renal): 1.83 µM | TGI (TK-10 renal): 6.26 µM | GI50 (U251 glioblastoma): 5.72 µM | TGI (U251 glioblastoma): > 100 µM | GI50 (UACC-257 melanoma): 41.3 µM | TGI (UACC-257 melanoma): > 100 µM | GI50 (UACC-62 melanoma): 4.45 µM | TGI (UACC-62 melanoma): 64.9 µM | GI50 (UO-31 renal): 4.47 µM | TGI (UO-31 renal): > 100 µM
